According to ChEMBL document CHEMBL5241077 (Eur J Med Chem, 2021):
In brackets after ≈: the same amount, converted by molar mass.

What was measured:
dengue virus type 2 [1] = assay: Antiviral activity against DENV2 […] infected in hamster BHK-21 cells assessed as reduction viral titer incubated for 48 hrs by plaque assay; format: functional, organism-based; details: BHK-21, 48 h
dengue virus type 2 [2] = assay: Antiviral activity against DENV2 New Guinea C infected in hamster BHK-21 cells assessed as reduction viral titer incubated for 48 hrs by plaque assay; format: functional, organism-based; details: BHK-21, 48 h
dengue virus type 2 [3] = assay: Antiviral activity against DENV2 infected hamster BHK cells assessed as inhibition of virus-induced cytopathogenicity and measured after 20 hrs by flow cytometry; format: functional, organism-based
dengue virus type 2 [4] = assay: Antiviral activity against DENV2 infected in human HEK293 cells assessed as reduction in viral load incubated for 3 days by plaque reduction assay; format: functional; details: HEK293, 72 h, time 3 day
[5] = Binding affinity to Dengue virus serotype 2 envelope stem (419 to 447 residues) trimer peptide incubated for 3 hrs by fluorescence polarization assay; set-up: species or system dengue virus type 2
dengue virus type 2 [6] = assay: Antiviral activity against DENV2 ThNH-7/93 infected in hamster BHK-21 cells assessed as reduction in viral entry incubated for 2 hrs by focus forming assay; format: functional, organism-based; details: ThNH-7/93, BHK-21, 2 h
dengue virus type 2 [7] = assay: Antiviral activity against DENV2 infected in African green monkey Vero E6 cells assessed as inhibition of viral titer incubated for 48 hrs by plaque reduction assay; format: functional, organism-based
dengue virus type 2 [8] = assay: Antiviral activity against DENV2 TSV01 infected in Asian tiger mosquito C6/36 cells assessed as reduction in plaque forming unit incubated for 1 hrs by propidium iodide staining based fluorescence analysis; format: functional, organism-based; details: TSV01, C6/36, 1 h
dengue virus type 2 [9] = assay: Antiviral activity against DENV2 ThNH-7/93 infected in hamster BHK-21 cells assessed as reduction in virus titer incubated for 2 hrs by focus forming assay; format: functional, organism-based; details: ThNH-7/93, BHK-21, 2 h
dengue virus type 2 [10] = assay: Antiviral activity against DENV2 16681 infected in African green monkey Vero E6 cells assessed as inhibition of virus-induced cytopathic effect incubated for 1.5 hrs by plaque assay; format: functional, organism-based; details: Dengue virus, 16681, Vero
dengue virus type 2 [11] = assay: Antiviral activity against DENV2 PL046 infected in hamster BHK-21 cells assessed as reduction in plaque forming unit incubated for 7 days by crystal violet staining analysis; format: functional, organism-based; details: PL046, BHK-21, 168 h
dengue virus type 2 [12] = assay: Antiviral activity against DENV2 infected in African green monkey Vero E6 cells assessed as inhibition of viral replication incubated for 5 days by crystal violet staining based plaque reduction assay; format: functional, organism-based; details: 120 h

CC(=O)N[C@@H]1[C@@H](O[C@@H]2O[C@@H](C(=O)O)[C@@H](O)[C@H](O)[C@H]2O)[C@@H](OS(=O)(=O)O)[C@@H](CO)O[C@H]1O
IC50 (dengue virus type 2 [1]): 0.3 µg/mL (≈ 0.628 µM) | IC50 (dengue virus type 2 [2]): 3 µg/mL (≈ 6.28 µM)

O=S(=O)(O)O[C@@H]1[C@@H](OS(=O)(=O)O)[C@H](O[C@@H]2CO[C@@H](O)[C@H](OS(=O)(=O)O)[C@H]2OS(=O)(=O)O)OC[C@H]1O
EC50 (dengue virus type 2 [3]): 30 µg/mL (≈ 49.8 µM)

Nc1c(C(=O)Nc2nc(-c3ccccc3)cs2)sc2nc3c(cc12)CN(c1ccccc1)CC3
IC90 (dengue virus type 2 [4]): 0.025 µM

N#C/C(=N\Nc1cccc(Cl)c1)C(=O)c1ccco1
IC50 [5]: 15 µM

CC(=O)N[C@@H]1[C@@H](O[C@@H]2O[C@H](C(=O)O)[C@@H](O)[C@H](O)[C@H]2O)[C@@H](O)[C@@H](OS(=O)(=O)O)O[C@H]1O
EC50 (dengue virus type 2 [6]): 1.5 µg/mL (≈ 3.24 µM)

CO[C@H]1O[C@H](COS(=O)(=O)O)[C@H](O[C@@H]2O[C@H](CO)[C@H](O)[C@H](C)[C@H]2OS(=O)(=O)O)[C@H](O)[C@H]1OS(=O)(=O)O
IC50 (dengue virus type 2 [7]): 0.14 µg/mL (≈ 0.235 µM)

O=P(O)(O)OC[C@H]1O[C@H](OC2[C@H](OS(=O)(=O)O)[C@@H](OC3C(OS(=O)(=O)O)O[C@H](COS(=O)(=O)O)[C@@H](OS(=O)(=O)O)[C@@H]3OS(=O)(=O)O)O[C@H](COS(=O)(=O)O)[C@H]2OS(=O)(=O)O)[C@@H](OS(=O)(=O)O)[C@@H](OS(=O)(=O)O)[C@@H]1OS(=O)(=O)O (stereo not given in full)
EC50 (dengue virus type 2 [3]): 200 µg/mL (≈ 144 µM)

O=C(O)c1cc(=O)c2ccc(S[C@@H](/C=C/C=C/CCOc3ccc(Cl)c(Cl)c3)[C@H](O)c3cccc(C(F)(F)F)c3)cc2o1
IC50 (dengue virus type 2 [8]): 6.8 µM

Nc1c(C(=O)Nc2nc(-c3ccccc3)cs2)sc2nc3c(cc12)CC(c1ccccc1)CC3 (stereo not given)
IC90 (dengue virus type 2 [4]): 0.112 µM

C[C@@H]1O[C@H](C)[C@@H](O)[C@H](O)[C@@H]1OS(=O)(=O)O
IC50 (dengue virus type 2 [9]): 4.7 µg/mL (≈ 19.4 µM)

O=C(O)C[C@@H]1C(=O)O[C@H]2[C@@H]3OC(=O)c4cc(O)c(O)c(O)c4-c4c(cc(O)c(O)c4O)C(=O)OC[C@H]2O[C@@H](OC(=O)c2cc(O)c(O)c(O)c2)[C@@H]3OC(=O)c2cc(O)c(O)c3c2[C@H]1[C@H](O)C(=O)O3 [CHEBULAGIC ACID]
EC50 (dengue virus type 2 [10]): 13.1 µM

C[C@H]1c2cccc(O)c2C(=O)C2=C(O)[C@]3(O)C(=O)C(C(N)=O)=C(O)[C@@H](N(C)C)[C@@H]3[C@@H](O)[C@@H]21 [DOXYCYCLINE]
IC50 (dengue virus type 2 [11]): 55.6 µM

O=C1O[C@H]2[C@@H]3OC(=O)c4cc(O)c(O)c(O)c4-c4c(cc(O)c(O)c4O)C(=O)OC[C@H]2O[C@@H](OC(=O)c2cc(O)c(O)c(O)c2)[C@@H]3OC(=O)c2cc(O)c(O)c3c2[C@@H]2C1=CC(=O)[C@](O)(O3)C2(O)O [GERANIIN]
IC50 (dengue virus type 2 [12]): 1.75 µM

CN(C)[C@@H]1C(O)=C(C(=O)NCN2CCCC2)C(=O)[C@@]2(O)C(O)=C3C(=O)c4c(O)cccc4[C@@](C)(O)[C@H]3C[C@@H]12 [ROLITETRACYCLINE]
IC50 (dengue virus type 2 [11]): 67.1 µM
